This note sets out measurements from ChEMBL document CHEMBL1134077, “Synthesis of potent and selective dopamine D(4) antagonists as candidate radioligands” (Bioorg Med Chem Lett, 2001).

Test [1] concerns the target Delta-type opioid receptor (Homo sapiens, UniProt P41143). The test can be described thus: Binding affinity to cloned Opioid receptor delta 1.
The target in test [2] is 5-hydroxytryptamine receptor 6 (Homo sapiens, UniProt P50406). The test can be described thus: In vitro binding affinity to human 5-hydroxytryptamine 6 receptor.
Another test deals with Histamine H1 receptor (Homo sapiens, UniProt P35367). As to the kind of experiment: Binding affinity to cloned Histamine H1 receptor.
Test [3] concerns the target Kappa-type opioid receptor (Homo sapiens, UniProt P41145). The test can be described thus: Binding affinity to cloned Opioid receptor kappa 1.
Test [4] has as its target Glutamate [NMDA] receptor. The test can be described thus: Binding affinity for N-methyl-D-aspartate glutamate receptor. Format: protein-complex assay.
Another test concerns the target T1, D(4) dopamine receptor (Rattus norvegicus, UniProt P30729).
T1 sequence (P30729 whole entry): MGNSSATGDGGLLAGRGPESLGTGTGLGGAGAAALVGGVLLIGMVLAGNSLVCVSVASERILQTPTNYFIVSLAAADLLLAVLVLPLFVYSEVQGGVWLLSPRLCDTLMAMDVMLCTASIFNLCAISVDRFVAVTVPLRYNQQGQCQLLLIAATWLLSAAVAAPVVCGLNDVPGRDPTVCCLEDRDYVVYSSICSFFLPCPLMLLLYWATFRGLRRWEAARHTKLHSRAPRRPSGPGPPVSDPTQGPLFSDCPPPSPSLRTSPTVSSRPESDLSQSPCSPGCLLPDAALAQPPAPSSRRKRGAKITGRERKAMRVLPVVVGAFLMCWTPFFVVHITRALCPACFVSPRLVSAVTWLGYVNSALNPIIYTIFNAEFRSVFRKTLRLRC
As to the kind of experiment: In vitro binding affinity to rat Dopamine receptor D4 measured by displacement of the radioligand [3H]spiperone.

In test [5] the target is 5-hydroxytryptamine receptor 5A (Homo sapiens, UniProt P47898). As to the kind of experiment: Binding affinity to cloned human 5-hydroxytryptamine 5A receptor.
A further test has as its target D(3) dopamine receptor (Rattus norvegicus, UniProt P19020). The test can be described thus: In vitro binding affinity to cloned rat Dopamine receptor D3 measured by displacement of the radioligand [3H]sulpiride. The arrangement: […].
For test [6], the target named is T2, Muscarinic acetylcholine receptor M5 (Homo sapiens, UniProt P08912).
T2 sequence (P08912 whole entry): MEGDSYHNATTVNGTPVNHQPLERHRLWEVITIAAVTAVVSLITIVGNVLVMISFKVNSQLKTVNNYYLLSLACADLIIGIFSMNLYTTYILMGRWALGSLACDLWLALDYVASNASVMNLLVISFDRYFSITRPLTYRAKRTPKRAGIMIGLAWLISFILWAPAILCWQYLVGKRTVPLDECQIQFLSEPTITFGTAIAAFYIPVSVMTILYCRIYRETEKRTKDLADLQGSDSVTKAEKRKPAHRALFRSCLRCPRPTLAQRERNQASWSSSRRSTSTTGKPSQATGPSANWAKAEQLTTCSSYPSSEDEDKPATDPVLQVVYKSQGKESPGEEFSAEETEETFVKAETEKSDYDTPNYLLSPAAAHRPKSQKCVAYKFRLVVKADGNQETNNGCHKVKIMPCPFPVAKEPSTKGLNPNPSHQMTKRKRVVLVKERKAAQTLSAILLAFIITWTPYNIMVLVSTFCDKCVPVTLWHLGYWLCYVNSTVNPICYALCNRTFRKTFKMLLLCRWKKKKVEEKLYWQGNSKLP
The test can be described thus: Binding affinity to cloned Muscarinic acetylcholine receptor M5.

Test [7] has as its target 5-hydroxytryptamine receptor 1B (Homo sapiens, UniProt P28222). The test can be described thus: Binding affinity to cloned human 5-hydroxytryptamine 1B receptor.
In another test the target is D(1B) dopamine receptor (Rattus norvegicus, UniProt P25115). The test can be described thus: In vitro binding affinity to cloned rat D5 receptor measured by displacement of radioligand [3H]SCH-23,982.
Test [8] deals with T3, Muscarinic acetylcholine receptor M2 (Homo sapiens, UniProt P08172).
T3 sequence (P08172 whole entry): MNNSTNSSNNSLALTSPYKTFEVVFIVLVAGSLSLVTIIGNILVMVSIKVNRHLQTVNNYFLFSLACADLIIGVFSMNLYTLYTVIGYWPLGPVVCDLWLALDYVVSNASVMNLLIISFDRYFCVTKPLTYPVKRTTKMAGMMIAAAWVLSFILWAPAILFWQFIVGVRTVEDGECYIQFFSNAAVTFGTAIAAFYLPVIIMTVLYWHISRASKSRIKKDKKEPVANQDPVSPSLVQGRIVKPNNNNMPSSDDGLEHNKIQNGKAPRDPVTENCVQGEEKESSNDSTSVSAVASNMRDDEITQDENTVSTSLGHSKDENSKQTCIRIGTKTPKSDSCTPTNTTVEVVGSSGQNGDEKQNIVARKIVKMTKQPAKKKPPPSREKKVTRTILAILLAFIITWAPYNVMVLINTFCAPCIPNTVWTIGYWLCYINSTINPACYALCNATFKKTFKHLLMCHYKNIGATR
As to the kind of experiment: Binding affinity to cloned Muscarinic acetylcholine receptor M2.

For test [9], the target named is T4, 5-hydroxytryptamine receptor 1A (Homo sapiens, UniProt P08908).
T4 sequence (P08908 whole entry): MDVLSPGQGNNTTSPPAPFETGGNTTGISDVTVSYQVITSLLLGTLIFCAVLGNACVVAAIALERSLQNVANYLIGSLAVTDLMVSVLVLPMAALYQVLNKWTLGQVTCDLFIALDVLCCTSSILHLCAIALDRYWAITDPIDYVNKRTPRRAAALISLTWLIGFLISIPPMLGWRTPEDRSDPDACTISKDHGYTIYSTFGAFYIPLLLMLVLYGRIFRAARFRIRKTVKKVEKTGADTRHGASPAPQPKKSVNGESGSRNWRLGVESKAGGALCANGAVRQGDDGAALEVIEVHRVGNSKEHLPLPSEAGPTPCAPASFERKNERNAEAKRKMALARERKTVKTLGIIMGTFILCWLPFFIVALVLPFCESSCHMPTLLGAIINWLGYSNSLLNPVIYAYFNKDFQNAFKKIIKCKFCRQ
As to the kind of experiment: In vitro binding affinity to human 5-hydroxytryptamine 1A receptor.

The next test addresses Mu-type opioid receptor (Homo sapiens, UniProt P35372). The test can be described thus: Binding affinity to cloned Opioid receptor mu 1.
For test [10], the target named is 5-hydroxytryptamine receptor 2A (Homo sapiens, UniProt P28223). As to the kind of experiment: Binding affinity to cloned human 5-hydroxytryptamine 2A receptor.
The target of the next test is Glutamate NMDA receptor. The test can be described thus: Binding affinity to PCP site of rat N-methyl-D-aspartate glutamate receptor. The class given is protein-complex assay.
Test [11] deals with Muscarinic acetylcholine receptor M3 (Homo sapiens, UniProt P20309). The test can be described thus: Binding affinity to cloned Muscarinic acetylcholine receptor M3.
The nature of test [12]: Binding affinity to cloned Nicotinic acetylcholine receptors. Also noted: species or system Rattus norvegicus.
For another test, the target named is D(2) dopamine receptor (Rattus norvegicus, UniProt P61169). The test can be described thus: In vitro binding affinity to rat Dopamine receptor D2 measured by displacement of the radioligand [3H]spiperone.
D(2) dopamine receptor, sequence (P61169 whole entry): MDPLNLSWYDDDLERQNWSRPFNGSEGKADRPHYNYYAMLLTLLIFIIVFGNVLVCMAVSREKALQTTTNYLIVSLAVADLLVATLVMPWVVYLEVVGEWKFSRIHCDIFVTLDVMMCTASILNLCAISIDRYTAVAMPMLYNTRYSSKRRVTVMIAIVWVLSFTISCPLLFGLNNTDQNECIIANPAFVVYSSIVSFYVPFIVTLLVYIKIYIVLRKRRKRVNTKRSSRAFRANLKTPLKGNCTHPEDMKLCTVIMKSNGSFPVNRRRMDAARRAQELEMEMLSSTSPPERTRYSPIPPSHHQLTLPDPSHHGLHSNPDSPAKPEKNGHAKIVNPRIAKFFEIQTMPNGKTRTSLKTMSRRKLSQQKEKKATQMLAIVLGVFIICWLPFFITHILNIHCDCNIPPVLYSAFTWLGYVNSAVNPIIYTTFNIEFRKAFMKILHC

5-hydroxytryptamine receptor 5A, sequence (P47898 whole entry): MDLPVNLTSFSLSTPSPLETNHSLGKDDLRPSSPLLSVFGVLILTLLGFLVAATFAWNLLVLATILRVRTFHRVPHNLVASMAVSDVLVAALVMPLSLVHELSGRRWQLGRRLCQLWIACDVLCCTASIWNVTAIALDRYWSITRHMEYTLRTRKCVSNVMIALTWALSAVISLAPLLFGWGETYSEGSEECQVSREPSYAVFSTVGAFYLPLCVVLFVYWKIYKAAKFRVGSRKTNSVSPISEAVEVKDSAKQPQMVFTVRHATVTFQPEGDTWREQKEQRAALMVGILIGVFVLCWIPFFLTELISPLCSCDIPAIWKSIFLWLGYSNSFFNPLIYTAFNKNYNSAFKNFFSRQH
5-hydroxytryptamine receptor 6, sequence (P50406 whole entry): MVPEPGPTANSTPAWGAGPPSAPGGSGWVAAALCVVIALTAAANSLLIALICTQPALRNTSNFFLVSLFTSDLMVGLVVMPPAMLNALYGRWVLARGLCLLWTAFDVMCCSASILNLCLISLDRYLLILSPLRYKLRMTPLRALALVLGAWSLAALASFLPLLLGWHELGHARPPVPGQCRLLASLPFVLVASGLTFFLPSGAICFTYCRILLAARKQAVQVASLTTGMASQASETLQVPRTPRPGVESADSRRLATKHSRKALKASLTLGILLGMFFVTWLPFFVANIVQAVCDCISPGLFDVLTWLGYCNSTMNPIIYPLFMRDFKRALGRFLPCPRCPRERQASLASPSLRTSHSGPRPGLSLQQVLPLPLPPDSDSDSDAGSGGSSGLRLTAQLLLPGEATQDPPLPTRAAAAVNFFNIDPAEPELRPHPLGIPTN
Muscarinic acetylcholine receptor M3, sequence (P20309 whole entry): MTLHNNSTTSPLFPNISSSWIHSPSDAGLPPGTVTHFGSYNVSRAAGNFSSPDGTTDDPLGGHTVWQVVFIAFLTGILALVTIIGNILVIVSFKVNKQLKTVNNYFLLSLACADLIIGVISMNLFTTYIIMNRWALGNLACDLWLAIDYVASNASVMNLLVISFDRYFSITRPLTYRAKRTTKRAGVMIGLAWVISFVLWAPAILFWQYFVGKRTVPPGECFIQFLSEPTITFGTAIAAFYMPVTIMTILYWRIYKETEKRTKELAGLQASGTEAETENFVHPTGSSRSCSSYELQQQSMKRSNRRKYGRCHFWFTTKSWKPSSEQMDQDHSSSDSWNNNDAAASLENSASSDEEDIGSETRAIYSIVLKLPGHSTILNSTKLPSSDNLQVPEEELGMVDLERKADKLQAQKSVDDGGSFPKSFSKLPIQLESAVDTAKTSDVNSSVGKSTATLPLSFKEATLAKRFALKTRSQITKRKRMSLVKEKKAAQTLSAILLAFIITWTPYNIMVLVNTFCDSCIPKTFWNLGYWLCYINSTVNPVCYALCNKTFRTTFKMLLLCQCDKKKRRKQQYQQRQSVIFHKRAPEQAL
Histamine H1 receptor, sequence (P35367 whole entry): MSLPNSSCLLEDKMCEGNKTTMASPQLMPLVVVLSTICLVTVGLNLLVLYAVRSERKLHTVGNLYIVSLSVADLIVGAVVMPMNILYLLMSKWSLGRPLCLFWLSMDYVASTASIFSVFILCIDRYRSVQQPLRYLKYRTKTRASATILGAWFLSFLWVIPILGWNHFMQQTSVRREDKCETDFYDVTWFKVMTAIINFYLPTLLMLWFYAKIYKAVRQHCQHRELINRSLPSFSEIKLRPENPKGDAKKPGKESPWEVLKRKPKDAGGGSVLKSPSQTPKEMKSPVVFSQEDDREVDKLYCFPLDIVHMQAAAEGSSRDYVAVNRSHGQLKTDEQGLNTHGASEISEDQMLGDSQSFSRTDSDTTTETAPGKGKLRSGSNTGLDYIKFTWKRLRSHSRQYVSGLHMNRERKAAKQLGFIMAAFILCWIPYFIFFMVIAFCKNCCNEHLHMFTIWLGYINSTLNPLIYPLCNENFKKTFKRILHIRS
D(1B) dopamine receptor, sequence (P25115 whole entry): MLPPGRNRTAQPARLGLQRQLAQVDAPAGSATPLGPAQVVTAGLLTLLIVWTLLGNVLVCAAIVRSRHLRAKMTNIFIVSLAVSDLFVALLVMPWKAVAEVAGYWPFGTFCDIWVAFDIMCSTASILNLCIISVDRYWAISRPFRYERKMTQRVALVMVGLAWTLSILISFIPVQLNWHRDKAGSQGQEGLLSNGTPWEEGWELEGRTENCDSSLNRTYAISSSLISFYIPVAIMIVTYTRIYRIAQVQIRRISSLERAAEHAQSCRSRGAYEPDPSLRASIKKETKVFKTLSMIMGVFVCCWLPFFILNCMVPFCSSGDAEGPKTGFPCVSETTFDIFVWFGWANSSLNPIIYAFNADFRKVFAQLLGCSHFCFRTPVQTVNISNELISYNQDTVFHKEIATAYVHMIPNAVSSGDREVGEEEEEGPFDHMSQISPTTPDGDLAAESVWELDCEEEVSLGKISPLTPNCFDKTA
D(3) dopamine receptor, sequence (P19020 whole entry): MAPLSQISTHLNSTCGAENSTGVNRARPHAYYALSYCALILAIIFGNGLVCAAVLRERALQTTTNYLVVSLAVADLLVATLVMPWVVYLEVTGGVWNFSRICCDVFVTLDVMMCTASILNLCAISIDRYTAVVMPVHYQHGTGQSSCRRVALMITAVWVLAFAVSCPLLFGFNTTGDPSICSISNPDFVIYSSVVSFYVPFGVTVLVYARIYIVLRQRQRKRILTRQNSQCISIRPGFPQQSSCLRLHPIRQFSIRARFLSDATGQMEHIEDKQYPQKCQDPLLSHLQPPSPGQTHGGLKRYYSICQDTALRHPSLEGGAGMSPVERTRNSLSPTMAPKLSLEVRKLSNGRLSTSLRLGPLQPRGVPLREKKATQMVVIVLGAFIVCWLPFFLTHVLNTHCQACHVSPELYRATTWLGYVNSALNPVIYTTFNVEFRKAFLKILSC
Delta-type opioid receptor, sequence (P41143 whole entry): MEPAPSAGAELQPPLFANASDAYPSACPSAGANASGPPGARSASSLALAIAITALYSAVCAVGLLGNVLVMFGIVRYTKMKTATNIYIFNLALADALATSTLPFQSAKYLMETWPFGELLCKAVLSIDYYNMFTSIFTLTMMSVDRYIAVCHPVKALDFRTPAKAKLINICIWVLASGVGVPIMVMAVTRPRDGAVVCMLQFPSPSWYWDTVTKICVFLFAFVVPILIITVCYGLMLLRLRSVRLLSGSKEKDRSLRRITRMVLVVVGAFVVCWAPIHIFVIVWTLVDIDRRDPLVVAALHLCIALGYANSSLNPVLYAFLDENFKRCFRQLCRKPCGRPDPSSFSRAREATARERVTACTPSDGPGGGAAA
5-hydroxytryptamine receptor 1B, sequence (P28222 whole entry): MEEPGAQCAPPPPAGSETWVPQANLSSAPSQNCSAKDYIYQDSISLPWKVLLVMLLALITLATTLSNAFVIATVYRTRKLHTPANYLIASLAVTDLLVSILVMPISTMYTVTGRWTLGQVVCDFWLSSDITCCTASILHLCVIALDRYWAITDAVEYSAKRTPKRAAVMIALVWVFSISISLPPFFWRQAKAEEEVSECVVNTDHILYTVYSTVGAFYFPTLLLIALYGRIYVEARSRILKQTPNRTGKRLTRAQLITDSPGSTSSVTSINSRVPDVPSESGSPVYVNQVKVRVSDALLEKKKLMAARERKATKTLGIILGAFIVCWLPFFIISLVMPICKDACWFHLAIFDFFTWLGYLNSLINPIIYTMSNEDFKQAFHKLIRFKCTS
Kappa-type opioid receptor, sequence (P41145 whole entry): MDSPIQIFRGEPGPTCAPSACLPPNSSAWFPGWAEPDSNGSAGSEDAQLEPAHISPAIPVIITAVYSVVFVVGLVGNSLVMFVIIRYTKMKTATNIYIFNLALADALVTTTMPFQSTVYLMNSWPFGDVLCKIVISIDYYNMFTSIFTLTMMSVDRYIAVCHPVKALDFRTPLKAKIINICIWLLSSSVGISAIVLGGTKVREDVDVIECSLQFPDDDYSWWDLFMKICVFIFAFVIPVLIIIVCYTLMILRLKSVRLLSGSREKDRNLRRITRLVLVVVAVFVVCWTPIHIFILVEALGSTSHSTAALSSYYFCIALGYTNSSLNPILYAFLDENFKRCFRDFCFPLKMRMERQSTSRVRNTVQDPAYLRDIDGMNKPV
5-hydroxytryptamine receptor 2A, sequence (P28223 whole entry): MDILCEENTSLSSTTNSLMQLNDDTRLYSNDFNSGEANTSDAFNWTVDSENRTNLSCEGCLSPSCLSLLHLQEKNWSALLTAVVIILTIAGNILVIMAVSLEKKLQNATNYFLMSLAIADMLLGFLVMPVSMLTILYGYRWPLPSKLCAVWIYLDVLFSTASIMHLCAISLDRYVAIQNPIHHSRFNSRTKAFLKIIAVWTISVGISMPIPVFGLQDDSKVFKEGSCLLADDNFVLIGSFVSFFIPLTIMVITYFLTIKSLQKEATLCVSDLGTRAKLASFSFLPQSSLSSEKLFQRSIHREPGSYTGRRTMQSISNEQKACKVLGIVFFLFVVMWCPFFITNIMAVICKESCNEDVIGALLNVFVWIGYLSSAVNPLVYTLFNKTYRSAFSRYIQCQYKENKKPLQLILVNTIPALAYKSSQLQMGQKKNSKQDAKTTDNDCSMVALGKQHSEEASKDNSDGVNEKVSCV

By Ki is commonly meant the dissociation constant of the complex between target and ligand, obtained from inhibition or displacement. A high value points to a looser hold on the target. Regarding `CCc1ccc(N2CCN(Cc3c[nH]c4ncccc34)CC2)cc1`, the Ki was over 10 µM in [1]; 4.46 µM in test [2]; over 10 µM on Histamine H1 receptor; over 10 µM in [3]; over 10 µM in test [4]; 0.005 µM at D(4) dopamine receptor. In addition, the Ki was over 10 µM in [5]; 1.69 µM at D(3) dopamine receptor; over 10 µM in test [6]; over 10 µM in test [7]; over 10 µM on D(1B) dopamine receptor; over 10 µM in test [8]. Further, the inhibitory constant (Ki) in test [9] is over 10 µM; at Mu-type opioid receptor, over 10 µM; in test [10], 0.627 µM; at Glutamate NMDA receptor, over 10 µM; in [11], over 10 µM; in test [12], over 10 µM. The same compound showed an inhibition constant (Ki) on D(2) dopamine receptor of over 10 µM.
